Assays:
Test in all cases: relative viability (nuclei count vs DMSO), 5 days (fraction); higher = more cells survive
FG-4592 + Dasatinib = compound: Cc1nc(C(=O)NCC(=O)O)c(O)c2ccc(Oc3ccccc3)cc12 [FG-4592] + Cc1nc(Nc2ncc(C(=O)Nc3c(C)cccc3Cl)s2)cc(N2CCN(CCO)CC2)n1 [Dasatinib] (partner 0.075 µM)
Outline: (§1)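 For relative viability, nuclei counts in treated wells were divided by those in vehicle wells. Lung cancer cell lines had been pin-tool dosed in 1536-well plates the day after seeding and cultured for 5 days, then fixed and stained in one step (final 0.05% Triton X-100, 1% formaldehyde, 1 ug/ml Hoechst) and imaged at 4×. Doses were one drug alone or a fixed anchor-drug dose plus five library-drug doses (not always all listed) in √10 steps, and values are duplicate-plate medians.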

IU1-47 + Navitoclax = compound: CC1=CC(=C(N1C2=CC=C(C=C2)Cl)C)C(=O)CN3CCCCC3 [IU1-47] + CC1(C)CCC(c2ccc(Cl)cc2)=C(CN2CCN(c3ccc(C(=O)NS(=O)(=O)c4ccc(N[C@H](CCN5CCOCC5)CSc5ccccc5)c(S(=O)(=O)C(F)(F)F)c4)cc3)CC2)C1 [Navitoclax] (partner 0.5 µM)
Outline: as §1

IU1-47 + Lapatinib = compound: CC1=CC(=C(N1C2=CC=C(C=C2)Cl)C)C(=O)CN3CCCCC3 [IU1-47] + CS(=O)(=O)CCNCc1ccc(-c2ccc3ncnc(Nc4ccc(OCc5cccc(F)c5)c(Cl)c4)c3c2)o1 [Lapatinib] (partner 2 µM)
Outline: as §1

FG-4592 + Luminespib = compound: Cc1nc(C(=O)NCC(=O)O)c(O)c2ccc(Oc3ccccc3)cc12 [FG-4592] + CCNC(=O)c1noc(-c2cc(C(C)C)c(O)cc2O)c1-c1ccc(CN2CCOCC2)cc1 [Luminespib] (partner 0.01 µM)
Outline: as §1

LK-2
relative viability (FG-4592 + Dasatinib; first compound 0.08 µM): 0.281 | relative viability (FG-4592 + Dasatinib; first compound 0.253 µM): 0.304 | relative viability (FG-4592 + Dasatinib; first compound 2.53 µM): 0.262 | relative viability (FG-4592 + Dasatinib; first compound 8 µM): 0.277 | relative viability (IU1-47 + Navitoclax; first compound 0.08 µM): 1.11 | relative viability (IU1-47 + Navitoclax; first compound 0.253 µM): 0.956 | relative viability (IU1-47 + Navitoclax; first compound 0.8 µM): 0.893 | relative viability (IU1-47 + Navitoclax; first compound 2.53 µM): 0.773 | relative viability (IU1-47 + Navitoclax; first compound 8 µM): 0.546 | relative viability (IU1-47 + Lapatinib; first compound 0.08 µM): 1.15 | relative viability (IU1-47 + Lapatinib; first compound 0.253 µM): 1.26 | relative viability (IU1-47 + Lapatinib; first compound 0.8 µM): 0.963 | relative viability (IU1-47 + Lapatinib; first compound 2.53 µM): 0.703 | relative viability (IU1-47 + Lapatinib; first compound 8 µM): 0.517 | relative viability (FG-4592 + Luminespib; first compound 0.08 µM): 0.227 | relative viability (FG-4592 + Luminespib; first compound 0.253 µM): 0.168 | relative viability (FG-4592 + Luminespib; first compound 2.53 µM): 0.146 | relative viability (FG-4592 + Luminespib; first compound 8 µM): 0.177

BEN
relative viability (FG-4592 + Dasatinib; first compound 0.08 µM): 0.323 | relative viability (FG-4592 + Dasatinib; first compound 0.253 µM): 0.348 | relative viability (FG-4592 + Dasatinib; first compound 0.8 µM): 0.262 | relative viability (FG-4592 + Dasatinib; first compound 2.53 µM): 0.365 | relative viability (FG-4592 + Dasatinib; first compound 8 µM): 0.305 | relative viability (IU1-47 + Navitoclax; first compound 0.08 µM): 0.073 | relative viability (IU1-47 + Navitoclax; first compound 0.253 µM): 0.0735 | relative viability (IU1-47 + Navitoclax; first compound 0.8 µM): 0.0687 | relative viability (IU1-47 + Navitoclax; first compound 2.53 µM): 0.0707 | relative viability (IU1-47 + Navitoclax; first compound 8 µM): 0.0719 | relative viability (IU1-47 + Lapatinib; first compound 0.08 µM): 0.723 | relative viability (IU1-47 + Lapatinib; first compound 0.253 µM): 0.816 | relative viability (IU1-47 + Lapatinib; first compound 0.8 µM): 1.09 | relative viability (IU1-47 + Lapatinib; first compound 2.53 µM): 0.617 | relative viability (IU1-47 + Lapatinib; first compound 8 µM): 0.633 | relative viability (FG-4592 + Luminespib; first compound 0.08 µM): 0.337 | relative viability (FG-4592 + Luminespib; first compound 0.253 µM): 0.386 | relative viability (FG-4592 + Luminespib; first compound 0.8 µM): 0.39 | relative viability (FG-4592 + Luminespib; first compound 2.53 µM): 0.437 | relative viability (FG-4592 + Luminespib; first compound 8 µM): 0.218

NCI-H23
relative viability (FG-4592 + Dasatinib; first compound 0.08 µM): 0.841 | relative viability (FG-4592 + Dasatinib; first compound 0.253 µM): 0.669 | relative viability (FG-4592 + Dasatinib; first compound 0.8 µM): 0.706 | relative viability (FG-4592 + Dasatinib; first compound 2.53 µM): 0.694 | relative viability (FG-4592 + Dasatinib; first compound 8 µM): 0.862 | relative viability (IU1-47 + Navitoclax; first compound 0.08 µM): 0.791 | relative viability (IU1-47 + Navitoclax; first compound 0.253 µM): 0.903 | relative viability (IU1-47 + Navitoclax; first compound 0.8 µM): 0.987 | relative viability (IU1-47 + Navitoclax; first compound 2.53 µM): 0.925 | relative viability (IU1-47 + Navitoclax; first compound 8 µM): 0.716 | relative viability (IU1-47 + Lapatinib; first compound 0.08 µM): 1.04 | relative viability (IU1-47 + Lapatinib; first compound 0.253 µM): 1.05 | relative viability (IU1-47 + Lapatinib; first compound 0.8 µM): 1.26 | relative viability (IU1-47 + Lapatinib; first compound 2.53 µM): 0.995 | relative viability (IU1-47 + Lapatinib; first compound 8 µM): 1.25 | relative viability (FG-4592 + Luminespib; first compound 0.08 µM): 0.208 | relative viability (FG-4592 + Luminespib; first compound 0.253 µM): 0.247 | relative viability (FG-4592 + Luminespib; first compound 0.8 µM): 0.179 | relative viability (FG-4592 + Luminespib; first compound 2.53 µM): 0.203 | relative viability (FG-4592 + Luminespib; first compound 8 µM): 0.184

NCI-H1395
relative viability (FG-4592 + Dasatinib; first compound 0.08 µM): 0.446 | relative viability (FG-4592 + Dasatinib; first compound 0.253 µM): 0.416 | relative viability (FG-4592 + Dasatinib; first compound 0.8 µM): 0.373 | relative viability (FG-4592 + Dasatinib; first compound 2.53 µM): 0.364 | relative viability (FG-4592 + Dasatinib; first compound 8 µM): 0.365 | relative viability (IU1-47 + Navitoclax; first compound 0.08 µM): 1.03 | relative viability (IU1-47 + Navitoclax; first compound 0.253 µM): 1.07 | relative viability (IU1-47 + Navitoclax; first compound 0.8 µM): 1.14 | relative viability (IU1-47 + Navitoclax; first compound 8 µM): 1.15 | relative viability (IU1-47 + Lapatinib; first compound 0.08 µM): 0.968 | relative viability (IU1-47 + Lapatinib; first compound 0.253 µM): 0.96 | relative viability (IU1-47 + Lapatinib; first compound 0.8 µM): 1.08 | relative viability (IU1-47 + Lapatinib; first compound 8 µM): 0.892 | relative viability (FG-4592 + Luminespib; first compound 0.08 µM): 0.34 | relative viability (FG-4592 + Luminespib; first compound 0.253 µM): 0.685 | relative viability (FG-4592 + Luminespib; first compound 0.8 µM): 0.583 | relative viability (FG-4592 + Luminespib; first compound 2.53 µM): 0.61 | relative viability (FG-4592 + Luminespib; first compound 8 µM): 0.753

201T
relative viability (FG-4592 + Dasatinib; first compound 0.08 µM): 0.549 | relative viability (FG-4592 + Dasatinib; first compound 0.253 µM): 0.566 | relative viability (FG-4592 + Dasatinib; first compound 0.8 µM): 0.616 | relative viability (FG-4592 + Dasatinib; first compound 2.53 µM): 0.569 | relative viability (FG-4592 + Dasatinib; first compound 8 µM): 0.646 | relative viability (IU1-47 + Navitoclax; first compound 0.08 µM): 1.23 | relative viability (IU1-47 + Navitoclax; first compound 0.253 µM): 1.2 | relative viability (IU1-47 + Navitoclax; first compound 0.8 µM): 1.21 | relative viability (IU1-47 + Navitoclax; first compound 8 µM): 1.22 | relative viability (IU1-47 + Lapatinib; first compound 0.08 µM): 1.04 | relative viability (IU1-47 + Lapatinib; first compound 0.253 µM): 1 | relative viability (IU1-47 + Lapatinib; first compound 0.8 µM): 1.05 | relative viability (IU1-47 + Lapatinib; first compound 8 µM): 0.957 | relative viability (FG-4592 + Luminespib; first compound 0.08 µM): 1.04 | relative viability (FG-4592 + Luminespib; first compound 0.253 µM): 0.984 | relative viability (FG-4592 + Luminespib; first compound 0.8 µM): 1.06 | relative viability (FG-4592 + Luminespib; first compound 2.53 µM): 1.03 | relative viability (FG-4592 + Luminespib; first compound 8 µM): 1.06

From the supplement of paper PMC10307832
